Experimental data reported in patent US20200308170A1, “KRAS G12C INHIBITORS” (Mirati Therapeutics, Inc., priority 2017, published 2020).

Each compound was assayed against KRas G12C (Homo sapiens, UniProt P01116, G12C) (assay: Inhibition of KRas G12C in NCI-H358 cells measured by phosphorylated ERK (Phospho-ERK)). Settings: 3 hours, 4 parameter fit, read-out: IC50 (pERK(Thr202/Tyr204) signal normalized with GAPDH).
Assay type: cell-based
Experimental: Cells were plated in poly-D-Lysine coated 96-well plates at a concentration of 50,000 cells/well and allowed to attach for 8-12 hours. Diluted compounds were then added at a final concentration of 0.5% DMSO. After 3 hours, the medium was removed, 150 μL of 4% formaldehyde was added and the plates were incubated for 20 minutes. The plates were washed with PBS, and permeabilized using 150 μL of ice cold 100% methanol for 10 minutes. Non-specific antibody binding to the plates was blocked using 100 μL Licor Blocking Buffer (Li-Cor Biotechnology, Lincoln Nebr.) for 1 hour at room temperature. Positive control samples and samples lacking cells were parallel processed with test samples as standards.
The amount Phospho-ERK was determined using an antibody specific for the phosphorylated form of ERK and compared to the amount of GAPDH. […] The plates were incubated for 2 hours at room temperature. The plates were washed with PBS+0.05% Tween 20.
Secondary antibodies used to visualize primary antibodies were added as follows: Anti-rabbit-680 diluted 1:1000 and Anti-mouse-800 diluted 1:1000 in Licor Block+0.05% Tween 20 and incubated for 1 hour at room temperature. The plates were washed with PBS+0.05% Tween 20. A 100 μL aliquot of PBS was added to each well and the plates were read on a LICOR AERIUS plate reader.
The pERK(Thr202/Tyr204) signal was normalized with the GAPDH signal and percent of DMSO control values were calculated. IC50 values were generated using a 4 parameter fit of the dose response curve.

Chain of KRas G12C (P01116 1-188 isoform P01116-2 G12C): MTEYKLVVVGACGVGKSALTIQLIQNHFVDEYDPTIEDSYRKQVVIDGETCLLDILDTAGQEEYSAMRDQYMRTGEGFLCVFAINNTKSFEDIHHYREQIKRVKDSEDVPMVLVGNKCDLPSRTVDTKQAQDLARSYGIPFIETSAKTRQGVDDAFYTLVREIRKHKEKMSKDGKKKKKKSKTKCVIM

Row | IC50 [nM] | SMILES
1 | 0.1 to 1000 | C=C(F)C(=O)N1CCN(c2nc(OC[C@@H]3CCCN3C3CCC3)nc3c2CCN(c2cccc4ccc(F)c(Cl)c24)C3)C[C@@H]1CC#N [Example 196]
2 | 0.1 to 1000 | C=C(F)C(=O)N1CCN(c2nc(OCC3CN(C)CCC34CN(C)C4)nc3c2CCN(c2cccc4ccc(F)c(Cl)c24)C3)C[C@@H]1CC#N (stereo partly shown) [Example 162]
3 | 0.1 to 1000 | C=C(F)C(=O)N1CCN(c2nc(OC[C@@H]3C[C@@H](F)CN3C(C)C)nc3c2CCN(c2cccc4ccc(F)c(Cl)c24)C3)C[C@@H]1CC#N [Example 183]
4 | 1000 to 10000 | C=C(F)C(=O)N1CCN(c2nc(OCC3CCOC3)nc3c2CCN(c2cccc4ccc(F)c(Cl)c24)C3)C[C@@H]1CC#N (stereo partly shown) [Example 189]
5 | 0.1 to 1000 | C=C(F)C(=O)N1CCN(c2nc(OC[C@@H]3CCCN3C)nc3c2CCN(c2cccc4ccc(F)c(Cl)c24)C3)C[C@@H]1CC#N [Example 133]
6 | 1000 to 10000 | C=C(F)C(=O)N1CCN(c2nc(OCC(C)N3C[C@@H](C)O[C@@H](C)C3)nc3c2CCN(c2cccc4ccc(F)c(Cl)c24)C3)C[C@@H]1CC#N (stereo partly shown) [Example 164]
7 | 0.1 to 1000 | C=C(F)C(=O)N1CCN(c2nc(OC[C@@H]3CC4CCN3C4)nc3c2CCN(c2cccc4ccc(F)c(Cl)c24)C3)C[C@@H]1CC#N (stereo partly shown) [Example 180]
8 | 0.1 to 1000 | C=C(F)C(=O)N1CCN(c2nc(OC[C@@H]3C[C@@H](OC)CN3C(C)C)nc3c2CCN(c2cccc4ccc(F)c(Cl)c24)C3)C[C@@H]1CC#N [Example 181]
9 | 0.1 to 1000 | C=C(F)C(=O)N1CCN(c2nc(OCC3CC4(CC4)CN3C)nc3c2CCN(c2cccc4ccc(F)c(Cl)c24)C3)C[C@@H]1CC#N (stereo partly shown) [Example 160]
10 | 0.1 to 1000 | C=C(F)C(=O)N1CCN(c2nc(OC[C@@H]3CC(F)(F)CN3C)nc3c2CCN(c2cccc4ccc(F)c(Cl)c24)C3)C[C@@H]1CC#N [Example 169]
11 | 0.1 to 1000 | C=C(F)C(=O)N1CCN(c2nc(OC3CCN(C(C)C)C3)nc3c2CCN(c2cccc4ccc(F)c(Cl)c24)C3)C[C@@H]1CC#N (stereo partly shown) [Example 150]
12 | 0.1 to 1000 | C=C(F)C(=O)N1CCN(c2nc(OCC3CCN3CC)nc3c2CCN(c2cccc4ccc(F)c(Cl)c24)C3)C[C@@H]1CC#N (stereo partly shown) [Example 179]
13 | 0.1 to 1000 | C=C(F)C(=O)N1CCN(c2nc(OC[C@@H]3C[C@@H](OC)CN3)nc3c2CCN(c2cccc4ccc(F)c(Cl)c24)C3)C[C@@H]1CC#N [Example 210, 2-((S)-4-(7-(8-chloro-7-fluoronaphthalen-1-yl)-2-(((2S,4R)-4-methoxypyrrolidin-2-yl)methoxy)-5,6,7,8-tetrahydropyrido[3,4-d]pyrimidin-4-yl)-1-(2-fluoroacryloyl)piperazin-2-yl)acetonitrile]

Continued, compound first:

Row | SMILES | IC50 [nM]
14 | C=C(F)C(=O)N1CCN(c2nc(OC3CC4(C3)CN(C)C4)nc3c2CCN(c2cccc4ccc(F)c(Cl)c24)C3)C[C@@H]1CC#N [Example 149] | 1000 to 10000
15 | C=C(F)C(=O)N1CCN(c2nc(OCC34CC(N(C)C)(C3)C4)nc3c2CCN(c2cccc4ccc(F)c(Cl)c24)C3)C[C@@H]1CC#N [Example 188] | 0.1 to 1000
16 | C=C(F)C(=O)N1CCN(c2nc(OCCNCC(F)(F)F)nc3c2CCN(c2cccc4ccc(F)c(Cl)c24)C3)C[C@@H]1CC#N [Example 200] | 0.1 to 1000
17 | C=C(F)C(=O)N1CCN(c2nc(OCC(C)N3CCCCC3)nc3c2CCN(c2cccc4ccc(F)c(Cl)c24)C3)C[C@@H]1CC#N (stereo partly shown) [Example 158] | 0.1 to 1000
18 | N#CC[C@H]1CN(c2nc(OCC34CCCN3CCC4)nc3c2CCN(c2cccc4ccc(F)c(Cl)c24)C3)CCN1C(=O)/C(F)=C/CF [Example 207, (S, Z)-2-(4-(7-(8-chloro-7-fluoronaphthalen-1-yl)-2-((tetrahydro-1H-pyrrolizin-7a(5H)-yl)methoxy)-5,6,7,8-tetrahydropyrido[3,4-d]pyrimidin-4-yl)-1-(2,4-difluorobut-2-enoyl)piperazin-2-yl)acetonitrile] | 0.1 to 1000
19 | C=C(F)C(=O)N1CCN(c2nc(OCC34CCCN3CCC4)nc3c2CCN(c2cccc(F)c2C(F)(F)F)C3)C[C@@H]1CC#N [Example 140] | 0.1 to 1000
20 | C=C(F)C(=O)N1CCN(c2nc(OCCNCC(F)F)nc3c2CCN(c2cccc4ccc(F)c(Cl)c24)C3)C[C@@H]1CC#N [Example 211, (S)-2-(4-(7-(8-chloro-7-fluoronaphthalen-1-yl)-2-(2-((2,2-difluoroethyl)amino)ethoxy)-5,6,7,8-tetrahydropyrido[3,4-d]pyrimidin-4-yl)-1-(2-fluoroacryloyl)piperazin-2-yl)acetonitrile] | 0.1 to 1000
21 | C=C(F)C(=O)N1CCN(c2nc(OCC34COCN3COC4)nc3c2CCN(c2cccc4ccc(F)c(Cl)c24)C3)C[C@@H]1CC#N [Example 155] | 0.1 to 1000
22 | C=C(F)C(=O)N1CCN(c2nc(OCCn3ccnc3)nc3c2CCN(c2cccc4ccc(F)c(Cl)c24)C3)C[C@@H]1CC#N [Example 163] | 1000 to 10000
23 | C=C(F)C(=O)N1CCN(c2nc(O[C@@H]3CCCC[C@H]3N(C)C)nc3c2CCN(c2cccc4ccc(F)c(Cl)c24)C3)C[C@@H]1CC#N [Example 182] | 1000 to 10000
24 | C=C(F)C(=O)N1CCN(c2nc(OCC34CCCN3C[C@H](F)C4)nc3c2CCN(c2cccc4ccc(F)c(Cl)c24)C3)C[C@@H]1CC#N (stereo partly shown) [Example 156] | 0.1 to 1000
25 | C=C(F)C(=O)N1CCN(c2nc(OCC3COCCC34CN(C)C4)nc3c2CCN(c2cccc4ccc(F)c(Cl)c24)C3)C[C@@H]1CC#N (stereo partly shown) [Example 161] | 0.1 to 1000
26 | COC/C=C(\F)C(=O)N1CCN(c2nc(OCC34CCCN3CCC4)nc3c2CCN(c2cccc4ccc(F)c(Cl)c24)C3)C[C@@H]1CC#N [Example 206, (S, Z)-2-(4-(7-(8-chloro-7-fluoronaphthalen-1-yl)-2-((tetrahydro-1H-pyrrolizin-7a(5H)-yl)methoxy)-5,6,7,8-tetrahydropyrido[3,4-d]pyrimidin-4-yl)-1-(2-fluoro-4-methoxybut-2-enoyl)piperazin-2-yl)acetonitrile] | 0.1 to 1000
27 | C=C(F)C(=O)N1CCN(c2nc(OCCc3nccn3C)nc3c2CCN(c2cccc4ccc(F)c(Cl)c24)C3)C[C@@H]1CC#N [Example 191] | 0.1 to 1000
28 | C=C(F)C(=O)N1CCN(c2nc(OCC34CCCN3C(=O)CC4)nc3c2CCN(c2cccc4ccc(F)c(Cl)c24)C3)C[C@@H]1CC#N (stereo partly shown) [Example 145] | 1000 to 10000
29 | C=C(F)C(=O)N1CCN(c2nc(OCCN(CC)CC)nc3c2CCN(c2cccc4ccc(F)c(Cl)c24)C3)C[C@@H]1CC#N [Example 159] | 0.1 to 1000
30 | C=C(F)C(=O)N1CCN(c2nc(OCC34CCCN3CC3(CC3)C4)nc3c2CCN(c2cccc4ccc(F)c(Cl)c24)C3)C[C@@H]1CC#N (stereo partly shown) [Example 184] | 0.1 to 1000
31 | C=C(F)C(=O)N1CCN(c2nc(OCC34CCCN3CCC4)nc3c2CCN(c2cccc(Cl)c2C(F)(F)F)C3)C[C@@H]1CC#N [Example 141] | 0.1 to 1000
32 | C=C(F)C(=O)N1CCN(c2nc(OC[C@@H]3CCCN3C)nc3c2CCN(c2cccc4c2CCC4)C3)C[C@@H]1CC#N [Example 135] | 0.1 to 1000
33 | C=C(F)C(=O)N1CCN(c2nc(OCC34CCC(CC3)N4C)nc3c2CCN(c2cccc4ccc(F)c(Cl)c24)C3)C[C@@H]1CC#N [Example 171] | 0.1 to 1000
34 | C=C(F)C(=O)N1CCN(c2nc(OCC34CCCN3CCC4)nc3c2CCN(c2cccc4ccccc24)C3)C[C@@H]1CC#N [Example 146] | 0.1 to 1000
35 | C=C(F)C(=O)N1CCN(c2nc(OCC3(CC)CCCN3C)nc3c2CCN(c2cccc4ccc(F)c(Cl)c24)C3)C[C@@H]1CC#N (stereo partly shown) [Example 175] | 0.1 to 1000
36 | C=C(F)C(=O)N1CCN(c2nc(OCCN(C)CC(F)(F)F)nc3c2CCN(c2cccc4ccc(F)c(Cl)c24)C3)C[C@@H]1CC#N [Example 148, (S)-2-(4-(7-(8-chloro-7-fluoronaphthalen-1-yl)-2-(2-(methyl(2,2,2-trifluoroethyl)amino)ethoxy)-5,6,7,8-tetrahydropyrido[3,4-d]pyrimidin-4-yl)-1-(2-fluoroacryloyl)piperazin-2-yl)acetonitrile] | 1000 to 10000
37 | C=C(F)C(=O)N1CCN(c2nc(OCCN3CCCCCC3)nc3c2CCN(c2cccc4ccc(F)c(Cl)c24)C3)C[C@@H]1CC#N [Example 165] | 0.1 to 1000
38 | C=C(F)C(=O)N1CCN(c2nc(OCC34CCC(CC3)CN4C)nc3c2CCN(c2cccc4ccc(F)c(Cl)c24)C3)C[C@@H]1CC#N [Example 166] | 0.1 to 1000
39 | C=C(F)C(=O)N1CCN(c2nc(OCC34CCCN3CCC4)nc3c2CCN(c2cccc4cccc(Cl)c24)C3)C[C@@H]1CC#N [Example 105, (S)-2-(4-(7-(8-chloronaphthalen-1-yl)-2-((tetrahydro-1H-pyrrolizin-7a(5H)-yl)methoxy)-5,6,7,8-tetrahydropyrido[3,4-d]pyrimidin-4-yl)-1-(2-fluoroacryloyl)piperazin-2-yl)acetonitrile] | 0.1 to 1000
40 | C=C(F)C(=O)N1CCN(c2nc(OC[C@@H]3CCCN3C)nc3c2CCN(c2cccc4ccc(F)c(C)c24)C3)C[C@@H]1CC#N [Example 131, 2-((S)-4-(7-(7-fluoro-8-methylnaphthalen-1-yl)-2-(((S)-1-methylpyrrolidin-2-yl)methoxy)-5,6,7,8-tetrahydropyrido[3,4-d]pyrimidin-4-yl)-1-(2-fluoroacryloyl)piperazin-2-yl)acetonitrile] | 0.1 to 1000
